Source: patent publication US10702513B2, “Methods of treating pain and inducing analgesia” (NEW YORK UNIVERSITY, priority 2012, dated 2020)
Entries after “also recorded” stand apart in the source; their conditions may differ. Where two headings read alike, the source gives them in different places.

Key:
[1] = target: GluA2-lacking AMPA receptors (Homo sapiens, UniProt P42261); conditions: cited from earlier work; for potentiation of CPARs and calcium impermeable AMPA receptors: literature (Sekiguchi 2002; Quirk 2002)
Chain of GluA2-lacking AMPA receptors (P42261 19-906): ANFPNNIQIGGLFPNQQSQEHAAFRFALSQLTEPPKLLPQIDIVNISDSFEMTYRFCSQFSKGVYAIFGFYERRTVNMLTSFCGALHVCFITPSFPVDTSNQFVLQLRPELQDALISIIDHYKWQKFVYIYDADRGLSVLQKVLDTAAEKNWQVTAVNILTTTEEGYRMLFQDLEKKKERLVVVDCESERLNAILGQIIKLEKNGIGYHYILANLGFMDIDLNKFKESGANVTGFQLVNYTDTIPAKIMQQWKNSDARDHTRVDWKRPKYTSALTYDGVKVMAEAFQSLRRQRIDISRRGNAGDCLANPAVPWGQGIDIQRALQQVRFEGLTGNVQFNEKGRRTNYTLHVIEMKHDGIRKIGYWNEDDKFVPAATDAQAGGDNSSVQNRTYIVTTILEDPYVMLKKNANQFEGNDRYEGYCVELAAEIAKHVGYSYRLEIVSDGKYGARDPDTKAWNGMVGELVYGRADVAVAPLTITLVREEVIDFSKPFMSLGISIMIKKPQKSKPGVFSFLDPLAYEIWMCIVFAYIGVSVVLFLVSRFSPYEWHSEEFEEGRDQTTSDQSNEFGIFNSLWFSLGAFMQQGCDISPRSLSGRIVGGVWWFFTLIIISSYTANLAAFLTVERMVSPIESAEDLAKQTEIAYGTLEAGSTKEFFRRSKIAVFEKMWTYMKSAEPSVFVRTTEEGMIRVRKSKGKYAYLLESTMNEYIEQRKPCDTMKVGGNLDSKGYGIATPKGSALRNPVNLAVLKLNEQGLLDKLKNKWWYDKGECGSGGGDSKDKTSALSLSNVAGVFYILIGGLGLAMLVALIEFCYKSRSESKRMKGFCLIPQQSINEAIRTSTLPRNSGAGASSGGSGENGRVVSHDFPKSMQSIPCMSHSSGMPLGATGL

[2] = cited from earlier work; for antidepressant effects: literature (Sekiguchi 2002; Quirk 2002); for antidepressant effect on pain-induced depression: SNI model, Wang et al. 2011
SNI-treated rats [3] = conditions: Wang et al. 2011; cited from earlier work
GluA1 = conditions: Li et al. 2010; cited from earlier work
SNI-treated rats [4] = assay: Sucrose preference test (depression-like behavior) after intra-NAc administration, SNI model; format: in vivo, rat
Source text: After SNI, rats develop sensory hypersensitivity, as measured by increased withdrawal response to von Frey filaments (mechanical allodynia) and acetone (cold allodynia) (FIG. 5) (Wang, et al. Anesthesiology 2011; 115: 812-821). The sucrose preference test (SPT) and forced swim test (FST) are used to assess depression. Preference for sucrose over water is a normal hedonic response in rats, whereas a decreased sucrose preference on the SPT represents anhedonia, a typical feature of depression. […] Sham-operated rats only develop depression-like behavior in the immediate postoperative period (FIG. 6C), due to acute incisional pain. These experiments were repeated in the PI model, and sensory and depressive symptoms both develop within 24 hours after paw incision and resolve 7 days later (FIG. 7). Thus, in animal models both acute and chronic postoperative pain cause depressive behavior.
(§1) To block CPARs locally in the NAc, microcannulas were stereotactically implanted bilaterally into the NAc, a technique well established (Carr, et al., Neuroscience 2010; 165: 1074-86). The NAc has anatomically distinct core and shell regions, both of which are involved in mood regulation. […] Sensory hypersensitivity was measured using von Frey filaments (Wang, et al. Anesthesiology 2011; 115: 812-821), whereas locomotion tests were performed using standard protocols (Carr, et al., Pschopharmacology (Berl) 2009; 201: 495-506).

SNI-treated rats [5] = assay: Mechanical hypersensitivity / allodynia (von Frey filaments), SNI model; format: in vivo, rat; conditions: for sensory hypersensitivity: administered directly into the NAc; for mechanical allodynia: 30 minutes after drug
Experimental: as §1
(§2) The Spared Nerve Injury (SNI) surgery was previously described in detail (Wang et al. Anesthesiology 2011, 115: 812-821). Briefly, under Isoflurane anesthesia (1.5 to 2%), the skin on the lateral surface of the right thigh of rat was incised and a section made through the biceps femoris muscle to expose three branches of the sciatic nerve: sural, common peroneal and tibial nerves. The common peroneal and tibial nerves were tied with non-absorbent 5.0 silk sutures at the point of trifurcation. The nerves were then cut distal to the knot, and about 3 to 5 mm of the distal ends were removed. Muscle layer was then sutured close, while skin was stapled. Staples were removed prior to behavioral testing.
A traditional Dixon up-down method with von Frey filaments was used to measure mechanical allodynia (Wang et al. Anesthesiology 2011, 115: 812-821). In brief, rats were individually placed into plexiglass chambers over a mesh table and acclimated for 20 min before the onset of examination. Beginning with 2.55 g, von Frey filaments in a set with logarithmically incremental stiffness (0.45, 0.75, 1.20, 2.55, 4.40, 6.10, 10.50, 15.10 g) were applied to the lateral ⅓ of right paws (in the distribution of the sural nerve) of animals at least 14 days after SNI surgery, and observers were blinded to the test conditions (CX546 vs. DMSO treatments).

SNI-treated rats [6] = assay: Cold hypersensitivity / allodynia (acetone), SNI model; format: in vivo, rat
Source text: as §2, with “Briefly,” for “The Spared Nerve Injury (SNI) surgery was previously described in detail (Wang et al. Anesthesiology 2011, 115: 812-821). Briefly,”
Animals were individually placed into plexiglass chambers as above and acclimated for 20 min. A drop of acetone was applied to the lateral plantar surface of the paws (in the distribution of the sural nerve). […] 0: no visible response or startle response lasting <0.5 second; 1: paw withdrawal lasting <5 seconds; 2: withdrawal lasting 5 to 10 seconds, +/− licking of the paws; 3: prolonged repetitive withdrawal lasting >10 s. Acetone was applied 5 times to each paw, and an average score was calculated.

SNI-treated rats [7] = assay: Forced swim test, SNI model; format: in vivo, rat; conditions: 10 mg/kg intraperitoneal, vs DMSO
Source text: as §2
On the first session of the test, each animal was placed for fifteen minutes into a standard clear Porsolt chamber with water at 25° C. filled to 25 cm. Afterwards, the animal was taken out of the chamber, dried and put back in its home cage. 24 hours later, the animal was placed into the Porsolt chamber again under the same conditions for 5 min. Both sessions were videotaped, but only the second session was analyzed. Immobility was defined as a lack of movement of the hind paws lasting greater than 1 second. Two independent observers, examined and graded the total time of immobility for each rat, and the average grade was presented for each animal. FST was conducted 14 days after surgeries. […]

[8] = administered directly into the NAc, SNI-treated rats, vs saline
[9] = injected into NAc core, SNI-treated rats
[10] = 10 mg/kg intraperitoneal, SNI rats, vs DMSO

For `NC(=O)COc1c(F)cc(SCCNS(=O)(=O)c2ccccc2)cc1F` [PEPA, 4-[2-(phenylsulfonylamino)ethylthio]-2,6-difluorophenoxyacetamide], the “potentiation of CPARs and calcium impermeable AMPA receptors” value [1] is listed as “potentiate both CPARs and calcium impermeable AMPA receptors” and the antidepressant effects [2] is listed as “antidepressant effects”.
In the case of `CNC1(c2ccccc2Cl)CCCCC1=O` (stereo not shown) [ketamine], the sensory pain relief (SNI-treated rats [3]) is listed as “without exerting long lasting sensory pain relief”, the “antidepressant effect on pain-induced depression” value [2] is listed as “antidepressant properties in the SNI model” and the “antidepressant effect on pain-induced depression” value ([2]; listed as Ketamine) is listed as “effectively treat pain-induced depression”. The GluA1 levels (GluA1) was “increase GluA1 levels”.
For `NCCCNCCCCNCCCNC(=O)Cc1cccc2ccccc12` [NASPM, 1-naphthyl acetyl spermine], the “sucrose preference (depression-like behavior)” value (SNI-treated rats [4]; [8]) was “decrease in sucrose preference; also recorded: enhance depression-like behavior; also recorded: significant further decline in their already reduced sucrose preference; also recorded: reduces sucrose preference”, the “average difference in sucrose preference between NASPM and saline treatment” value (SNI-treated rats [4]; based on preliminary data, used for power analysis, STD 0.15) was 0.2 and the “sucrose preference (depression-like behavior)” value (SNI-treated rats [4]; injected into NAc core, sham-treated rats) was “did not show this depression-like behavioral response”. For the same compound, the sensory hypersensitivity (SNI-treated rats [5]; SNI-treated rats) was “does not alter”, the mechanical hypersensitivity (SNI-treated rats [5]; [9]) was “does not change mechanical hypersensitivity; also recorded: did not alter; also recorded: no effects on mechanical hypersensitivity” and the cold hypersensitivity (SNI-treated rats [6]; [9]) was “did not alter”.
In the case of `CC(C)S(=O)(=O)NC[C@H](C)c1ccc(-c2ccc(C#N)cc2)cc1` [LY451646], the “potentiation of CPARs and calcium impermeable AMPA receptors” value [1] is listed as “potentiate both CPARs and calcium impermeable AMPA receptors” and the antidepressant effects [2] is listed as “antidepressant effects”.
For `O=C(c1ccc2c(c1)OCCO2)N1CCCCC1` [CX546], the analgesic effect (SNI-treated rats [5]; 2.5 mg/kg, SNI rats, vs DMSO) was “does not produce any statistically significant analgesic effect”, the mechanical allodynia (SNI-treated rats [5]; 5 mg/kg intraperitoneal, SNI rats, vs DMSO) was “successfully relieves mechanical allodynia; also recorded: relieve mechanical allodynia” and the mechanical allodynia (SNI-treated rats [5]; [10]) was “successfully relieves mechanical allodynia; also recorded: relieve mechanical allodynia”. The cold allodynia (SNI-treated rats [6]; [10]) was “relieves cold allodynia” and the “immobility on the forced swim test” value (SNI-treated rats [7]) was “significantly decreases immobility; also recorded: improves performance on the forced swim test”.
For `O=C1CCCN1` [2-pyrrolidinone], the “sucrose preference (depression-like behavior)” value (SNI-treated rats [4]; [8]) is listed as “increased sucrose; also recorded: return of sucrose preference to near control (painless) levels”, the sensory hypersensitivity (SNI-treated rats [5]; SNI-treated rats) is listed as “did not have any effect; also recorded: unaltered” and the “currents of GluA2-lacking AMPA receptors (CPAR currents)” value ([1]; in vitro, Nishizaki et al. 2002) is listed as “specifically increase CPAR currents; also recorded: specifically increase the currents of GluA2-lacking AMPA receptors”.
